Results: US20250122193A1, “NOVEL PYRIDOCARBAZOLIUM COMPOUNDS AND MEDICAL USES THEREOF” (MyCural Therapeutics, priority 2021, published 2025)

How the values were obtained:
[1] = test system: MYC mRNA; test: MYC mRNA expression by RT-qPCR; format: cell-based
Description: (§1) A) Measurement of MYC mRNA expression by RTqPCR after treatment with MYCMI-7 and different topoisomerase inhibitors at indicated concentrations. […] D) Western blot analysis of p53 and p21 expression after exposure to 5 μM MYCMI-7, ellipticine or camptothecin (CPT) in HCT116 cells. E) Western blot analysis of phospho-ATM, total ATM and p53 expression after exposure to indicated concentrations of MYCMI-7 and ellipticine in A375 cells after 3 hrs treatment.

[2] = test system: primary patient derived AML cell cultures and established AML/CML cell lines; test: primary AML cells and AML/CML cell lines, WST-1 assay
Description: C) Primary AML cells from patient biopsies where cultured for 72 hours in presence of MYCMI-7 at indicated doses cell growth was monitored by the WST-1 assay. One representative biological experiment out of at three, performed in triplicates is shown.
Cell growth and viability assays: Cell growth and viability was estimated in triplicates with WST-1 (Roche) or Resazurin sodium salt (Sigma-Aldrich) assays in medium at 37° C. and 5% CO2 for 2 hours after which absorbance or fluorescence, respectively, was measured with an Omega Fluostar (BMG Labtech) in a 96 well plate format. Cell viability by the Cyt60 assay was carried out as in manufacturers' protocol.

[3] = test system: MDA-MB-231 xenograft tumors; test: MDA-MB-231 xenograft
Description: A) Tumor growth of MDA-MB-231 xenografts in mice injected with 6.25 mg/kg MYCMI-7 or vehicle intratumorally twice a week until sacrificed. Tumor growth was monitored by measuring tumor size (mm^3) every 4th day. B) Survival curve of the mice in A) sacrificed when the tumors reached a volume of 1000 mm^3. C) Immunohistochemistry staining for MYC and apoptosis marker caspase 3 in MDA-MB-231 tumor tissue from vehicle- and MYCMI-7 treated animals at end point, D) Immunofluorescence staining of proliferation and apoptosis markers Ki67 and TUNEL, respectively, in MDA-MB-231 xenograft tumor tissue from vehicle- and MYCMI-7 treated animals at end point. E) MYCN-amplified SK-N-DZ neuroblastoma xenograft mice injected with 6.25 mg/kg MYCMI-7 or vehicle intratumorally twice a week until sacrificed. Tumor growth was monitored by measuring tumor volume (ml) daily. F) Survival curve of mice in E) sacrificed at a tumor volume of 1500 mm^3. G-H) H&E (G) and MYCN IHC (H) stainings of SK-N-DZ xenograft tumor tissue from vehicle- and MYCMI-7 treated animals at end point. A-H) At the end points, the last injection was done 3 hrs before sacrifice. Images were taken at 10× or 40× magnification.
For the xenograft transplantation mouse tumor models of breast cancer and neuroblastoma, 6-8 weeks old NOD/SCID mice (Taconic) or NMRI nu/nu (Scanbur) were injected s.c. with 5×10^6 MDA-MB-231 breast cancer cells or MYCN-amplified SK-N-DZ neuroblastoma cells. When tumors reached a size of 100-200 mm^3, mice started receiving treatment (6.25 mg/kg MYCMI-7) administered intratumorally (50 ml) twice per week. The last dose was administered 3 hrs before termination. Mice were sacrificed when the tumors had reached as size of 1000 mm^3 (MDA-MB-231) or 1500 mm^3 (SK-N-DZ). Tumors were collected and frozen in OCT (Cryomount, Histolab) or fixed in buffered 4% formaldehyde solution (Histolab) and paraffin-embedded.
Immunohistochemistry andimmunofluorescence: Apoptosis was visualized at the single-cell level on tumor cryosections using the TUNEL method using the In Situ Cell Death Detection Fluorescein-Roche kit and analyzed by fluorescence microscopy. Briefly, tumor cryosections were fixed in 4% paraformaldyde (PFA) and the assay was performed following the instructions from the manufacturer. Negative controls were run using the reagent without the TdT enzyme. Samples were mounted using Vectashield mounting medium (Vector) and DAPI was used as nuclear counterstaining. […] Visualization and image acquisition was done in a Zeiss microscope, and for panoramic views by a Vectra imaging system. For quantification, areas with positive TUNEL and Ki67 staining were measured using Image J software.

[4] = test system: phosphorylation of ATM; test: phospho-ATM and p53 by western blot, A375; format: cell-based; conditions: 5 μM, A375 cells, 3 hrs
Description: as §1
(§2) For western blot equal amounts of proteins ([…]) were separated on a 4-12% SDS-PAGE gel. Proteins were transferred to Immobilion-P membrane (Millipore) and detected by immunostaining and chemoluminescence (Immobilion western HRP substrate; Millipore). For immunoprecipitations 500-1000 μg of protein was used. […] Briefly, cells were crosslinked with 1% formaldehyde on ice for 6 minutes. Nuclear chromatin was sonicated on ice to fragments from 0.3 kb to 0.5 kb. Nuclear chromatin equivalent to 2.5×10^7 cells was immunoprecipitated with 2 μg antibody.

[5] = test system: normal rat embryo fibroblasts (REFs); test: cell cycle distribution by flow cytometry, normal REFs; format: cell-based; conditions: 5 μM
Description: FIG. 4: MYCMI-7 induces apoptosis in malignant cells and growth arrest in normal cells. A) Cell cycle distribution analysis by flow cytometry of MYC-regulated P493-6 cells and normal rat embryo fibroblasts (REFs). Left panel, P493-6 synchronized in G0 by 24 hours treatment of […] doxycycline. Doxycycline was removed and the cells were harvested 48 hours after the addition of fresh medium containing DMSO or 5 μM MYCMI-7. Right panel, flow cytometry analysis of normal REFs treated with DMSO or 5 μM MYCMI-7. B) Apoptosis assay using the Cell Death Detection ELISA^plus kit. Left panel, immortalized Rat1 fibroblasts with different MYC status after 24 hours of 5 μM MYCMI-7 treatment, middle panel and right panels, normal REFs and normal peripheral blood lymphocytes, respectively, after 24 and 48 hours of 5 μM MYCMI-7 treatment. […] Viability was measured by trypan blue exclusion assay. F) Cell growth measured with Cyt62 assay of primary normal human epidermal melanocytes (NHEM) treated for 72 hours with MYCMI-7, G) Viability measured by trypan blue exclusion assay of NHEM after treatment for 72 hours with MYCMI-7.
Flow cytometry: P493-6 cells were synchronized using 1 μg/ml doxycycline. […] Cells were stained with propidium iodide (Sigma) and 1×10^4 cells per treatment were analyzed using a FACScan and CellQuestPro (Becton Dickinson). […]

[6] = test system: p53 expression; test: p53 expression by western blot; format: cell-based; conditions: 5 μM, HCT116 and Kelly cells
Description: as §1, §2

[7] = target: MYC protein (Homo sapiens, UniProt P01106); test: steady state MYC protein level by western blot; format: cell-based; conditions: for MYC protein level: 17 hours, 5 μM
Description: (§3) FIG. 2: MYCMI-7 downregulates MYC and MYCN protein expresión. A) Steady state levels of MYC protein in MCF7 cells after 17 hours exposure to indicated concentrations MYCMI-7 or ellipticine B) MYC mRNA expression in MCF7 cells after treatment with MYCMI-7 for various time points. C) Steady state levels of MYC protein in different HCT116 cell lines (WT, FBW7−/− or p53−/−) after 17 hours exposure to 5 μM MYCMI-7. Endogenous MYC was immunoprecipitated and detected by western blot analysis. D) Cycloheximide (CHX) chase in HCT116 cells. Cells were subjected to 5 μM MYCMI-7 30 min prior cycloheximide addition. Cells were harvested after the indicated time points, MYC was immunoprecipitated using N262 antibody and the MYC levels analyzed using western blot (C33 antibody). E) CHX chase after MYCMI-7 treatment performed as in (D) using Fbxw7-deficient HCT116 cells. F) Stable expression of wt, T58A or S62A MYC in HO15.19 MYC−/− cells. The cells were treated with 5 μM MYCMI-7 overnight, and MYC expression was analyzed by western blot. G) Cartoon showing a linear structural representation of wt MYC and indicated mutants. H-J) Expression of MYC mutants after MYCMI-7 treatment. COS-7 cells were transfected with CMV-driven vectors containing HA-tagged wt MYC or mutants for 24 hrs and treated with 5 μM MYCMI-7 for 17 hrs. The DN (H) and DC (I) MYC mutants encodes the C-terminal and N-terminal halves of the MYC protein, respectively. DBr (J) lacks the DNA-binding basic region of the protein. A-J). Representative western blots out of at least three experiments are shown.
as §2

[8] = test system: MYC protein; test: steady state MYC protein level by western blot; format: cell-based; conditions: reconstituted HO15.19 MYC knockout Rat1 cells, 5 μM overnight
Description: as §3, §2

[9] = test system: Normal human dermal fibroblasts (NHDF); test: resazurin, cell count and trypan blue, NHDF; format: cell-based
Description: FIG. 4: MYCMI-7 induces apoptosis in malignant cells and growth arrest in normal cells. A) Cell cycle distribution analysis by flow cytometry of MYC-regulated P493-6 cells and normal rat embryo fibroblasts (REFs). Left panel, P493-6 synchronized in G0 by 24 hours treatment of […] doxycycline. Doxycycline was removed and the cells were harvested 48 hours after the addition of fresh medium containing DMSO or 5 μM MYCMI-7. Right panel, flow cytometry analysis of normal REFs treated with DMSO or 5 μM MYCMI-7. B) Apoptosis assay using the Cell Death Detection ELISA^plus kit. Left panel, immortalized Rat1 fibroblasts with different MYC status after 24 hours of 5 μM MYCMI-7 treatment, middle panel and right panels, normal REFs and normal peripheral blood lymphocytes, respectively, after 24 and 48 hours of 5 μM MYCMI-7 treatment. C) Measurement of viability and apoptosis by Apo-Tox Glo Triplex assay in A375 melanoma cells after 3 days of treatment with MYCMI-7 with the indicated concentrations. […] E) NHDFs treated with 3 μM MYCMI-7 for 72 hrs. Viability was measured by trypan blue exclusion assay. F) Cell growth measured with Cyt62 assay of primary normal human epidermal melanocytes (NHEM) treated for 72 hours with MYCMI-7, G) Viability measured by trypan blue exclusion assay of NHEM after treatment for 72 hours with MYCMI-7.

[10] = target: T1, MYCN (Homo sapiens, UniProt P04198); test: MYCN expression in Kelly neuroblastoma cells; format: cell-based
T1 construct: endogenous in cells; host or cells: Kelly neuroblastoma cells
Description: as §2

[11] = 6.25 mg/kg intratumoral twice weekly

MYC protein (Homo sapiens, UniProt P01106), sequence (P01106 16-454): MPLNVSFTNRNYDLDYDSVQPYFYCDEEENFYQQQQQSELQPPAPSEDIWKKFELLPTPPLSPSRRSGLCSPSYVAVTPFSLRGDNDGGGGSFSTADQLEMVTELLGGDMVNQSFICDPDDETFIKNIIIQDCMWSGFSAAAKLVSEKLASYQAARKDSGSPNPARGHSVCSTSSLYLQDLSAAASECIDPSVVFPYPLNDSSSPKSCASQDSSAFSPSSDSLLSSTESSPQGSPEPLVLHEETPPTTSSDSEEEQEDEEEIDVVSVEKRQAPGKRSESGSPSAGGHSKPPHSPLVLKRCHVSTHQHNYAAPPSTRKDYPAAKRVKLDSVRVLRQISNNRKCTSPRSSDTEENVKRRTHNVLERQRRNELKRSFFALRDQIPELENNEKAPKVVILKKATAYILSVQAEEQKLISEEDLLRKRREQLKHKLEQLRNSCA
T1 sequence (P04198 whole entry): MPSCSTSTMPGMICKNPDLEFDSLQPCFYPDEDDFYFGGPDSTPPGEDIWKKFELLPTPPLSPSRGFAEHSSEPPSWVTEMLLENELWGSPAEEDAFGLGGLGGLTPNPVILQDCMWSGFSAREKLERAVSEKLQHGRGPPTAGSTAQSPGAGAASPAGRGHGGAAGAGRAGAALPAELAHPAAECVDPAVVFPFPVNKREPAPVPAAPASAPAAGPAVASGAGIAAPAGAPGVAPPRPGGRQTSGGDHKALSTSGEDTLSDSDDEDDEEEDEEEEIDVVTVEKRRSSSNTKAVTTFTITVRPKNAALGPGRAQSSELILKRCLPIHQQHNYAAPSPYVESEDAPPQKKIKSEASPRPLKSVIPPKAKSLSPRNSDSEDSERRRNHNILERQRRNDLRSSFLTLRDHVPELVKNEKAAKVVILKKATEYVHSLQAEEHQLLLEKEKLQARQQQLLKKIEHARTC

CCN(CC)CC[n+]1ccc2c(C)c3[nH]c4ccccc4c3c(C)c2c1 [MYCMI-7, 2-(5,11-Dimethyl-6H-25-pyrido[4,3-b]carbazol-2-yl)-N,N-diethylethanamine bromide]
MYC expression (mRNA) ([1]; 5 μM): only minor effect
MYC mRNA expression ([1]; MCF7 cells, various time points): not due to reduced MYC mRNA expression
efficiency compared with 10058-F4, JQ1 and cisplatin [2]: more efficient
GI50 ([2]; Homo sapiens): 150 to 1300 nM
survival [3, 11]: significantly increased survival
tumor growth [3, 11]: slowed down considerably
H&E staining of tumor areas ([3]; mouse, in vivo): extensive necrosis/apoptosis
MYC expression in tumors (IHC) ([3]; mouse, in vivo): reduced expression of MYC
TUNEL staining ([3]; mouse, in vivo): increased TUNEL staining
caspase 3 expression in tumors (IHC) ([3]; mouse, in vivo): increased caspase 3 expression
proliferation and microvascular density (Ki67, CD31) ([3]; mouse, in vivo): reduced proliferation and microvascular density
phosphorylation of ATM and p53 expression (DDR signaling) [4]: only a slight increase
cell cycle effect [5]: induced G1 arrest
cell death [5]: no increase in cell death
p53 expression ([6]; early (3 hrs)): no effect
p53 expression ([6]; late (24 hrs)): only a minor increase
phosphorylation of MYC at Thr-58 or Ser-62 [7]: did not increase
MYC protein level ([7]; FBXW7−/− HCT116 cells): unaffected
steady state level of MYC protein ([7]; MCF7 cells, 17 hrs, 5 μM MYCMI-7): decreased drastically
MYC protein level ([7]; wt and p53 null HCT116 cells): strongly reduced
levels of wt, T58A and S62A MYC [8]: reduced the levels of both wt and the MYC mutants
cell number and metabolic activity normalized to DMSO ([9]; 3 days, low micromolar concentrations): lower overall cell number and metabolic activity
cell viability (trypan blue) ([9]; 72 hrs): unaffected
Expression of MYCN [10]: reduced
